# Source: the supplement of paper PMC13380429
# ± gives the standard deviation of the averaged measurements.
# Assays:
# Details in all cases: 72 h
# U2OS [1] = experiment: drug sensitivity score (DSS) for viability; higher = more toxic; extreme values may be limits of the assay
# HepG2 [2] = experiment: as above
# Caco-2 [3] = experiment: as above
# Vero E6 [4] = experiment: as above
# Calu-3 [5] = experiment: as above
# U2OS [6] = experiment: cell viability relative to DMSO; higher = less toxic
# HepG2 [7] = experiment: as above
# Caco-2 [8] = experiment: as above
# Vero E6 [9] = experiment: as above
# Calu-3 [10] = experiment: as above
# U2OS [11] = experiment: relative viability EC50 (midpoint between 100% and the lowest measured viability); higher = less toxic
# HepG2 [12] = experiment: as above
# Caco-2 [13] = experiment: as above
# Vero E6 [14] = experiment: as above
# Calu-3 [15] = experiment: as above
SMILES,drug sensitivity score (U2OS [1]),drug sensitivity score (HepG2 [2]),drug sensitivity score (Caco-2 [3]),drug sensitivity score (Vero E6 [4]),drug sensitivity score (Calu-3 [5]),cell viability (U2OS [6]; 1 nM),cell viability (U2OS [6]; 10 nM),cell viability (U2OS [6]; 100 nM),cell viability (U2OS [6]; 1000 nM),cell viability (U2OS [6]; 10000 nM),cell viability (HepG2 [7]; 1 nM),cell viability (HepG2 [7]; 10 nM),cell viability (HepG2 [7]; 100 nM),cell viability (HepG2 [7]; 1000 nM),cell viability (HepG2 [7]; 10000 nM),cell viability (Caco-2 [8]; 1 nM),cell viability (Caco-2 [8]; 10 nM),cell viability (Caco-2 [8]; 100 nM),cell viability (Caco-2 [8]; 1000 nM),cell viability (Caco-2 [8]; 10000 nM),cell viability (Vero E6 [9]; 1 nM),cell viability (Vero E6 [9]; 10 nM),cell viability (Vero E6 [9]; 100 nM),cell viability (Vero E6 [9]; 1000 nM),cell viability (Vero E6 [9]; 10000 nM),cell viability (Calu-3 [10]; 1 nM),cell viability (Calu-3 [10]; 10 nM),cell viability (Calu-3 [10]; 100 nM),cell viability (Calu-3 [10]; 1000 nM),cell viability (Calu-3 [10]; 10000 nM),relative viability EC50 (U2OS [11]),relative viability EC50 (HepG2 [12]),relative viability EC50 (Caco-2 [13]),relative viability EC50 (Vero E6 [14]),relative viability EC50 (Calu-3 [15])
N[C@H]1CCN(O)C1=O [HA-966-(S)-(-)],0,0,0,0,0,97.6 ± 2.7%,96.8 ± 2%,98.5 ± 3.2%,96.9 ± 0.71%,97.2 ± 3.2%,93.2%,107%,100%,104%,106%,103 ± 1.2%,86.4 ± 7.8%,106 ± 5.9%,96 ± 3.5%,102 ± 5.2%,96.8 ± 9.3%,95.3%,93.35 ± 0.35%,97.6 ± 3.4%,102 ± 4.7%,104 ± 4.8%,95.8 ± 4.6%,99.6 ± 2.1%,94.7 ± 7.3%,97.6 ± 0.71%,> 10 µM,> 10 µM,> 10 µM,> 10 µM,> 10 µM
NCCCCCNCC12CC3CC(CC(C3)C1)C2 [IEM1754],0,0,0,0,0.7,98.6%,106%,100%,100%,99%,106%,89.3%,98.1%,97.8%,97.9%,104%,97.4%,101%,104%,102%,98.6%,98.6%,94.7%,97.3%,102%,108%,106%,91%,97.8%,82.1%,> 10 µM,> 10 µM,> 10 µM,> 10 µM,> 10 µM
CC1(C)CN2C(CS/C(=N\C3CCCCC3)NC3CCCCC3)=CSC2=N1 [IT1t],0.1,0,0,0,2.2,97.1%,95.8%,102%,97.5%,88.8%,96.7%,102%,96.7%,102%,88.8%,91.6%,87.6%,99.5%,94.8%,82%,94.5%,95.7%,92.1%,99.4%,96.9%,96.4%,116%,100%,89.7%,75.4%,> 10 µM,> 10 µM,> 10 µM,> 10 µM,> 10 µM
COc1ccc2c3c([nH]c2c1)[C@H](CC(C)C)N1C(=O)[C@H](CCC(=O)OC(C)(C)C)NC(=O)[C@@H]1C3 [Ko143],0,0,0,0,0,98.7%,101%,98.1%,100%,94.1%,101%,86.3%,92.5%,85.6%,97.9%,95.7%,99.6%,91.8%,91.4%,93%,99.3%,96.7%,101%,93%,97.7%,89.8%,100%,97.7%,98.6%,97.9%,> 10 µM,> 10 µM,> 10 µM,> 10 µM,> 10 µM
CN(C)c1ccc(C(=O)NCCCCCCC(=O)NO)cc1 [M-344],11.7,14.4,9.2,10.6,11.8,99.2%,94.6%,93.9%,47.2%,1.1%,106%,92.8%,80.2%,37.9%,0.3%,101%,99.4%,103%,75.6%,1.5%,97.5%,101%,92.1%,56%,0%,101%,93.7%,77.2%,55.3%,13.6%,0.891 µM,0.504 µM,1.56 µM,1.14 µM,0.581 µM
Cc1cccc(C#Cc2ccccc2)n1 [MPEP],0,0,0,0,0.1,103%,100%,98.6%,103%,94%,98.8%,94.6%,101%,101%,103%,98.7%,94.5%,98.1%,102%,95%,98.1%,94.9%,96.6%,97.1%,95%,91.5%,95.5%,88.2%,89.6%,91.1%,> 10 µM,> 10 µM,> 10 µM,> 10 µM,> 10 µM
CC(=O)NCCc1c[nH]c2ccccc12 [N-acetyltryptamine],0,0,0,0,0,95.4%,102%,94.5%,99.3%,101%,105%,95.7%,97.1%,103%,104%,93.5%,94.7%,99.4%,96.5%,102%,97%,92.4%,99%,91.4%,107%,92.8%,96%,94.3%,105%,99.4%,> 10 µM,> 10 µM,> 10 µM,> 10 µM,> 10 µM
Nc1nc(OCc2ccccc2)c2nc[nH]c2n1 [O6-benzylguanine],0,0,0,0,0,101%,99.9%,100%,97.3%,104%,95.9%,105%,96.8%,108%,94.6%,105%,95.2%,98%,98.7%,106%,93.6%,108%,87.3%,103%,90.4%,103%,89.5%,107%,88.1%,105%,> 10 µM,> 10 µM,> 10 µM,> 10 µM,> 10 µM
O=C1C(=Cc2cccnc2)C(=O)c2ccccc21 [PRT4165],0,0,0,0.2,0,102%,98.9%,99.1%,99.6%,98.3%,113%,98.5%,92.1%,103%,87.6%,107%,86.5%,101%,87.1%,98.2%,96.1%,99%,103%,98.4%,87.6%,104%,103%,98.4%,97.4%,95.6%,> 10 µM,> 10 µM,> 10 µM,> 10 µM,> 10 µM
COc1ccc(S(=O)(=O)Nc2nc(-c3cccc([N+](=O)[O-])c3)cs2)cc1OC [Ro-61-8048],0,0,0,0,0,98.6%,93.5%,99.4%,100%,106%,107%,86.1%,101%,102%,106%,133%,90.8%,110%,124%,95.8%,101%,97.2%,85.1%,102%,97.9%,107%,89.5%,103%,97.9%,124%,> 10 µM,> 10 µM,> 10 µM,> 10 µM,> 10 µM
Cc1ccc(S(=O)(=O)N2CCC[C@H]2c2ccc(F)cc2)cc1 [Ro-67-7476],0,0,0,0,0,98.8%,95.1%,107%,99.4%,99.2%,106%,104%,96.2%,102%,97.4%,96.6%,102%,102%,97.3%,104%,109%,104%,94.1%,104%,100%,106%,101%,94.4%,98.1%,105%,> 10 µM,> 10 µM,> 10 µM,> 10 µM,> 10 µM
Fc1ccc(Cl)cc1-c1nc(Nc2ccncc2)c2nccnc2n1 [SD-208],0,0,0,0.4,0,103%,101%,96.5%,90.1%,91.2%,107%,107%,103%,95.6%,98.2%,108%,102%,104%,93.4%,93.2%,102%,103%,106%,96.5%,86.2%,107%,94.9%,111%,105%,103%,> 10 µM,> 10 µM,> 10 µM,> 10 µM,> 10 µM
C=C(C)CN1CC[C@]23c4c5ccc(O)c4O[C@H]2c2[nH]c4ccccc4c2C[C@@]3(O)C1C5 [SDM25N],0,0.4,0.1,0,0.2,93.7%,100%,100%,101%,91.8%,92.7%,101%,100%,102%,80.7%,92.9%,102%,89.9%,101%,86.4%,90.7%,93.1%,95.6%,96.6%,88.8%,92.8%,86.2%,93.5%,110%,82.4%,> 10 µM,> 10 µM,> 10 µM,> 10 µM,> 10 µM
CCN(CC)CCOC(=O)c1cc(Cl)c(N)cc1OC [SDZ-205-557],0,0,0,0,0,98.9%,102%,97%,103%,98.3%,105%,97.1%,90.6%,93.3%,102%,95.5%,101%,97.9%,106%,104%,106%,104%,99%,94.8%,97.3%,107%,101%,88%,96.6%,90.1%,> 10 µM,> 10 µM,> 10 µM,> 10 µM,> 10 µM
